Data: paper PMC8876525 (Viruses, 2022)
Marks after values point to notes of the source that are not given here.

Columns and labels:
[1] = CCK-8 cytotoxicity assay in HepAD38 cells; assay type: cell-based, Human; conditions: human, 6 days
[2] = tested on: HBV; experiment: Secreted HBV DNA in HepAD38 culture supernatant (RT-qPCR); assay type: cell-based; conditions: HepAD38 cells; for EC50: 6 days, read-out: EC50 (secreted HBV DNA); for Residual HBV DNA level (secreted) relative to DMSO control: 20 μM compound
[3] = tested on: HBV encapsidated pgRNA; experiment: Encapsidated pgRNA and total HBV RNAs (Northern blot); assay type: cell-based; conditions: HepAD38 cells, BAY 41-4109 2 μM; for Effect on HBV encapsidated pgRNA: C-18, C-39, C-19 5 μM, ETV 25 nM; for Effect on intracellular total HBV RNAs: C-18, C-39 5 μM
[4] = target: HBV capsid (Hepatitis B virus genotype D subtype ayw, UniProt P03146); experiment: Intracellular HBV capsid formation; assay type: cell-based; conditions: 6 days; for Effect on intracellular HBV capsid formation at single concentration: HepAD38 or HepG2-HBV1.3 cells, compounds 10 μM, ETV 25 nM, BAY 41-4109 2 μM
[5] = target: HBc (Hepatitis B virus genotype D subtype ayw, UniProt P03146); experiment: Immunofluorescence of HBV core protein in HepAD38 cells; assay type: cell-based; conditions: 3 days, BAY 41-4109 2 μM; for HBc localisation / aggregation: C-18 and C-39 5 μM
[6] = CCK-8 cytotoxicity assay in HepG2-HBV1.3 (HepG2) cells; assay type: cell-based; conditions: human
[7] = tested on: HBV; experiment: Secreted HBV DNA in HepG2-HBV1.3 culture supernatant (RT-qPCR); assay type: cell-based; conditions: HepG2-HBV1.3 cells
[8] = tested on: HBV core DNA; experiment: Intracellular HBV core DNA (qPCR) and replicative intermediates (Southern blot); assay type: cell-based; conditions: 6 days; for Effect on intracellular HBV core DNA: qPCR
[9] = tested on: HBsAg; experiment: Secreted HBsAg ELISA; assay type: cell-based, HBV; conditions: 6 days, ETV 25 nM, BAY 41-4109 2 μM
[10] = tested on: HBV 3.5 kb RNA; experiment: Intracellular HBV 3.5 kb RNA (RT-qPCR); assay type: cell-based; conditions: 6 days
[11] = tested on: HBV; experiment: HepG2-NTCP de novo HBV infection model (viral markers, cccDNA Taq-Man qPCR); assay type: cell-based; conditions: HepG2-NTCP cells, 5 μM
[12] = tested on: HBeAg; experiment: Secreted HBeAg ELISA; assay type: cell-based, HBV; conditions: 6 days
[13] = target: Cp149 protein (Hepatitis B virus genotype D subtype ayw, UniProt P03146); experiment: Cp149 capsid assembly in vitro, transmission electron microscopy; assay type: biochemical, HBV; conditions: Cp149 5 μM dimer, 300 mM NaCl, 150 mM HEPES pH 7.5; BAY 41-4109 5 μM 3 days, C-39 20 μM 3 and 7 days
Cp149 protein, sequence (P03146 1-149): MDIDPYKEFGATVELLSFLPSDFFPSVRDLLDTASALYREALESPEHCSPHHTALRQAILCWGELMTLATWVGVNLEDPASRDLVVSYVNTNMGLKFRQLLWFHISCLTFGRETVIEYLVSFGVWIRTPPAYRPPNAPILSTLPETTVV

HBV capsid, sequence (P03146 whole entry): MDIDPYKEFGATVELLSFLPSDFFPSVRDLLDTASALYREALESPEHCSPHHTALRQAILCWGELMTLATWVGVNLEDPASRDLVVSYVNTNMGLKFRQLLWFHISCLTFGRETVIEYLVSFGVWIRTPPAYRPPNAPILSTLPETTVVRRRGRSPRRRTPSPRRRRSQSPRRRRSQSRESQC
HBc, sequence (P03146 whole entry): as above

| Structure (SMILES) | CC50 at 6 days [1] [µM] | SI (CC50/EC50) [2] | EC50 ([2]; Hepatitis B virus, 144 h) [µM] | Residual HBV DNA level (secreted) relative to DMSO control [2] [%] | Effect on HBV encapsidated pgRNA [3] | Effect on intracellular HBV capsid formation at single concentration [4] | other results |
| --- | --- | --- | --- | --- | --- | --- | --- |
| O=C(CSc1nnc2ccc(C(=O)Nc3cccc(F)c3)cn12)Nc1ccc(F)c(F)c1 [Compound C-25] | 33.2 ± 1.9 | 114.6 ^a | 0.29 ± 0.02 | – | – | – | – |
| Cc1cc(O)c(C2=Nc3c(C(N)=O)cnn3C(c3cccc(Cl)c3)C2)c(=O)o1 (stereo not drawn) [Compound C-6] | – | – | – | 36 | – | – | – |
| O=C(Nc1ccc(F)c(F)c1)c1cc2nccc(-c3cccs3)n2n1 [Compound C-2] | – | – | – | 44 | – | – | – |
| Cc1onc(C(=O)Nc2ccc(F)c(F)c2)c1COc1cccc(C(F)(F)F)c1 [Compound C-1] | – | – | – | 62 | – | – | – |
| CC1(C(=O)NCc2ccc(F)cc2)CCCN(C(=O)Nc2ccc(F)c(Cl)c2)C1 (stereo not drawn) [Compound C-27] | 81.5 ± 5.8 | 72.8 ^a | 1.12 ± 0.05 | – | – | – | – |
| O=C(Nc1ccc(F)c(F)c1)c1cc(S(=O)(=O)N(CCc2ccccc2)Cc2ccccc2)ccc1F [Compound C-19] | 75.3 ± 5.2 | 194.1 | 0.39 ± 0.13 | – | slight effects | did not affect the capsid formation | – |
| COc1cccc(-c2noc([C@@H]3CCCN3C(=O)Nc3ccc(F)c(Cl)c3)n2)c1 [Compound C-9] | 26.6 ± 2 | 23.4 | 1.14 ± 0.23 | – | – | did not affect the capsid formation | – |
| Cc1cc2c(cc1S(=O)(=O)N1CCCC(C(=O)Nc3ccc(F)c(Cl)c3)C1)OC(C)C(=O)N2 (stereo not drawn) [Compound C-18] | 14.8 ± 0.7 | 131.2 | 0.11 ± 0.03 | – | markedly downregulated | strongly inhibited | Effect on intracellular total HBV RNAs [3]: slight decrease; Effect on intracellular HBV capsid formation, concentration series ([4]; HepG2-HBV1.3 cells): downregulated; HBc localisation / aggregation [5]: induced punctate HBc aggregation within the nucleus; CC50 at 6 days [6]: 20.6 µM; SI (CC50/EC50) [7]: 147.1; EC50 ([7]; Hepatitis B virus, 144 h, 6 days): 0.14 µM; Effect on HBV replicative intermediates ([8]; HepAD38 cells, Southern blot): notably downregulated; Effect on intracellular HBV core DNA ([8]; HepAD38 cells): dramatic decrease; Effect on intracellular HBV core DNA ([8]; HepG2-HBV1.3 cells): downregulated; Effect on secreted HBsAg ([9]; HepAD38 cells): no impact on HBsAg; Effect on intracellular HBV 3.5 kb RNA ([10]; HepAD38 cells): dramatic decrease; Effect on intracellular HBV 3.5 kb RNA ([10]; HepG2-HBV1.3 cells): downregulated; Effect on cccDNA formation, treatment together with viral inoculum (day 0) [11]: prevented the formation of cccDNA during the early postentry step; Effect on pre-established cccDNA, treatment 4 days after infection (day 4) [11]: minor effect; Effect on secreted HBeAg ([12]; HepAD38 cells): reduced the HBeAg level; Effect on secreted HBeAg ([12]; HepG2-HBV1.3 cells): downregulated |
| COC(=O)C1=C(C)NC(c2ncc(F)cc2F)=N[C@H]1c1ccc(F)cc1Cl [BAY 41-4109, reference compound] | – | – | – | – | markedly downregulated | dramatically inhibited capsid formation | Effect on intracellular total HBV RNAs [3]: slight decrease; HBc localisation / aggregation [5]: induced punctate HBc aggregation within the nucleus; HBc level by immunofluorescence ([5]; C-39 5 μM): significantly decreased the HBc level; EC50 [2]: 0.067 ± 0.01 µM; Effect on secreted HBsAg ([9]; HepAD38 cells): no impact on HBsAg production; Effect on secreted HBsAg ([9]; HepG2-HBV1.3 cells): no impact on HBsAg production; Morphology of assembled Cp149 particles (TEM) [13]: large irregular particles |
| Cc1nc(-c2csc(S(=O)(=O)N3CCCC(C(=O)Nc4ccc(F)c(Cl)c4)C3)c2)no1 (stereo not drawn) [Compound C-41] | 95.6 ± 15.7 | 1542 ^a | 0.062 ± 0.013 | – | – | – | – |
